Experimental data taken from patent US20140212487A1, “SOLID DISPERSION FORMULATION OF AN ANTIVIRAL COMPOUND” (priority 2013, published 2014).
Read-outs that look alike come from different tables or passages of the source.

Key:
[1] = Pharmacokinetics after oral administration of tablets in beagle dogs; format: in vivo; parameters: AUC0-24, mean (RSD) / F / AUC(0-t): dose or concentration left out as unconfirmed; conditions: pentagastrin pretreatment
Description: A series of in vivo experiments were conducted to evaluate the potential benefit of the solid dispersion approach relative to conventional formulations, as well as to optimize the solid dispersion by identifying the most beneficial polymer type and relative polymer concentration within the dispersion.
Pentagastrin is a synthetic polypeptide that stimulates the secretion of gastric acid, pepsin, and intrinsic factor. […]

HCV [2] = assay: Antiviral response for dose selection of ledipasvir in HCV infected subjects; format: in vivo, Hepatitis C virus
Description: The maximum median HCV RNA log 10 reduction was 3 or greater for all cohorts dosed with >3 mg of ledipasvir. […] Therefore, 30 mg and 90 mg of ledipasvir were selected as the dose for the formulations described herein.

[3] = Chemical stability in the ethanolic feed solution
[4] = Aqueous solubility screening of ledipasvir in the presence of polymers; format: physicochemical
Description: Solubility screening experiments were performed for ledipasvir in the presence of a variety of polymers, including hydroxypropyl cellulose, hypromellose, povidone and copovidone. […] Hypromellose, povidone, and copovidone increased the solubility of ledipasvir. […] Thus, in one embodiment, the polymer is selected from hypromellose, povidone, and copovidone.

HCV [5] = assay: Breakthrough (BT) rate of ledipasvir in combination with other therapeutic agents; format: in vivo, Hepatitis C virus
Description: Therefore, the 90 mg dose of ledipasvir may confer a greater antiviral coverage that prevents viral breakthrough.

clinical = conditions: in vivo, 30 mg; for half-life: t1/2, conventional formulation, median; for AUC(0-inf): AUCinf; for AUC(0-inf) / AUC(0-t) / Cmax / Vd/F: conventional formulation; for AUC(0-t): AUClast; for Vd/F: Vz/F
[6] = Solubility of ledipasvir in spray dry feed solvents; format: physicochemical; conditions: organic solvent or mixture
Description: The feed solution was initially evaluated for appropriate solvent with regard to solubility, stability, and viscosity. […] Ethanolic and DCM-based feed stocks were assessed for preparation ease and spray dried at a range of inlet and outlet temperatures to assess the robustness of the spray dry process. Both solvents gave rapid dissolution of ledipasvir and copovidone.

[7] = conventional formulation; for Clast, mean: 30 mg single dose
[8] = po, Geometric Least Squares Mean (GLSM), fasted
[9] = po, Geometric Least Squares Mean (GLSM), fed
[10] = po, mean, 30 mg single dose, fasted
[11] = po, mean, 30 mg single dose, fed (high-fat meal)
[12] = 30 mg, high-fat meal versus fasted

SMILES: COC(=O)N[C@H](C(=O)N1CC2(CC2)C[C@H]1c1ncc(-c2ccc3c(c2)C(F)(F)c2cc(-c4ccc5nc([C@@H]6[C@H]7CC[C@H](C7)N6C(=O)[C@@H](NC(=O)OC)C(C)C)[nH]c5c4)ccc2-3)[nH]1)C(C)C.O=C(O)C(O)C(O)C(=O)O [Crystalline D-tartrate]
- AUC0-24, mean (RSD) [1]: 7623 (44) nM * hr
- F [1]: 67%

SMILES: COC(=O)N[C@H](C(=O)N1CC2(CC2)C[C@H]1c1ncc(-c2ccc3c(c2)C(F)(F)c2cc(-c4ccc5nc([C@@H]6[C@H]7CC[C@H](C7)N6C(=O)[C@@H](NC(=O)OC)C(C)C)[nH]c5c4)ccc2-3)[nH]1)C(C)C [Amorphous Free base]
- AUC(0-t) ([1]; dog, in vivo, read-out: AUC0-24, mean (RSD)): 8.03 µM·h
- Cmax ([1]; dog, in vivo, read-out: Cmax, mean (RSD)): 743 nM
- F [1]: 71%

SMILES: COC(=O)N[C@H](C(=O)N1CC2(CC2)C[C@H]1c1ncc(-c2ccc3c(c2)C(F)(F)c2cc(-c4ccc5nc([C@@H]6[C@H]7CC[C@H](C7)N6C(=O)[C@@H](NC(=O)OC)C(C)C)[nH]c5c4)ccc2-3)[nH]1)C(C)C [Ledipasvir, (1-{3-[6-(9,9-difluoro-7-{2-[5-(2-methoxycarbonylamino-3-methyl-butyryl)-5-aza-spiro[2.4]hept-6-yl]-3H-imidazol-4-yl}-9H-fluoren-2-yl)-1H-benzoimidazol-2-yl]-2-aza-bicyclo[2.2.1]heptane-2-carbonyl}-2-methyl-propyl)-carbamic acid methyl ester]
- maximum median HCV RNA log 10 reduction (HCV [2]; all cohorts dosed with >3 mg of ledipasvir): ≥ 3 log 10
- fraction of maximal antiviral response (Emax PK/PD model) (HCV [2]; exposures after 30 mg dose, genotype 1a HCV infected subjects): > 95%
- chemical stability in the ethanolic feed solution [3]: good chemical stability
- increase of aqueous solubility of ledipasvir ([4]; pH 5, 0.1% w/w copovidone): 10 fold
- increase of aqueous solubility of ledipasvir ([4]; pH 5, 0.1% w/w hypromellose): 3 fold
- increase of aqueous solubility of ledipasvir ([4]; pH 5, 0.1% w/w povidone): 4 fold
- breakthrough (BT) rate (HCV [5]; 30 mg ledipasvir in combination with other therapeutic agents, 11/33): 33%
- breakthrough (BT) rate (HCV [5]; 90 mg ledipasvir in combination with other therapeutic agents, 9/74): 12%
- half-life (clinical; 30 mg single dose, fasted): 39.8 h
- half-life (clinical; 30 mg single dose, fed (high-fat meal)): 36.8 h
- Tmax (clinical; po): 6 h
- AUC(0-inf) (clinical; [8]): 2060 ng·h/mL
- AUC(0-inf) (clinical; [9]): 1140 ng·h/mL
- AUC(0-inf) (clinical; [10]): 2420 ng·h/mL
- AUC(0-inf) (clinical; [11]): 1180 ng·h/mL
- AUC(0-t) (clinical; [8]): 1720 ng·h/mL
- AUC(0-t) (clinical; [9]): 978 ng·h/mL
- AUC(0-t) (clinical; [10]): 1990 ng·h/mL
- AUC(0-t) (clinical; [11]): 996 ng·h/mL
- Cmax (clinical; [8]): 65.3 ng/mL
- Cmax (clinical; [9]): 35.9 ng/mL
- Cmax (clinical; [10]): 73.1 ng/mL
- Cmax (clinical; [11]): 36.5 ng/mL
- Vd/F (clinical; [10]): 877 L
- Vd/F (clinical; [11]): 1390 L
- solubility ([6]; dichloromethane (DCM)): > 500 mg/mL
- solubility ([6]; ethanol): > 500 mg/mL
- solubility ([6]; methanol): > 500 mg/mL
- Clast, mean ([7]; fasted): 6.8 ng/mL
- Clast, mean ([7]; fed (high-fat meal)): 3.1 ng/mL
- decrease in mean AUCinf [7, 12]: approximately 45%
- decrease in mean AUClast [7, 12]: approximately 45%
- decrease in mean Cmax [7, 12]: approximately 45%
